In patent US20230211030A1, “SYSTEMS AND METHODS FOR DISINFECTING PLUMBING FIXTURES AND ROOMS WITH PLUMBING FIXTURES” (priority 2021, published 2023):
Like-named read-outs stand apart in the source and are kept apart here.

Test system: living organisms
Conditions: for ATP results, Under Rim, front: Before 74; for ATP results, Bowl Surface, left: Before 81; for ATP results, Bowl Surface, front: Before 91; for ATP results, Handle: Before 225; for ATP results, Tub Floor, right of drain: Before 6204
Description: First, a control module or control system was constructed using a Raspberry Pi computer with 7 inch touchscreen monitor, Arduino microcontroller, two electronic breadboards, power supplies, and other electrical interfaces. A computer program written in Python receives inputs from the user via a convenient, single-screen input graphic on the touch screen. The graphic allows the user to independently specify the times that disinfecting fluid is dispensed to the sink, toilet, and shower by pressing up and down keys to increase or decrease minutes and seconds for each time. The time between disinfection cycles or cycle time is also input in the same manner. The graphic allows the chemical pump, 3-MD SC made by Little Giant Pump Co., to be enabled or disabled with the touch of a button. A button to start and stop the disinfecting cycle and also an output telling the user what part of the cycle is being run and how much time is left with that part of the cycle is also provided on the graphic interface screen. […] All chemical lines were made from half inch ID PVC reinforced tubing. Half inch stainless steel ball valves manufactured by U.S. Solid were installed in each branch to each plumbing fixture to control the on/off flow to each plumbing fixture, with the valve electronic actuators being wired to the control module and controlled by the program. The distribution structure conduit or tubing at the plumbing fixtures was customized to the shape and location of each plumbing fixture and was attached to each plumbing fixture in the following manner. […] A plexiglass backsplash was constructed about ten inches in height and 14 inches in width, plus partitions on either side protruding forward from the back panel at 45 degrees to help guide disinfecting fluid into the sink basin. The backsplash was held down to the countertop by a bead of silicone caulk, and the upper branch of tubing was mounted on this backsplash above the faucet. […] Holes were drilled in the tubing into which Quarter Circle Fan Micro Spray nozzles made by Mister Landscaper and available at Lowes were inserted and directed to either spray downward to coat the sink walls directly under the nozzles with disinfecting fluid or outward to spray disinfecting fluid into the sink basin on the opposite side of the sink. […] In this tubing, eleven Half Circle Fan Micro Spray nozzles were inserted with ten directed outwards toward the inner surfaces of the toilet bowl and one directed downwards so as to spray fluid onto a relatively large surface of the toilet bowl in the front of the toilet that sloped more gently and was not easily contacted by spray directed towards the sides. […] The program was configured to first apply disinfecting fluid to the sink for the time inputted for the sink, then the toilet, then the shower. When the cycle begins, the program first opens the ball valve to allow fluid to flow to a particular plumbing fixture, and then the pump is turned on and remains on until the end of the dispensing time, at which point the pump is turned off and the valve is closed. This sequence then repeats sequentially until all three plumbing fixtures have received the prescribed time of disinfecting fluid application.

[1] = Inside Toilet Bowl, After 3.5 Days, 40 secs each hour
[2] = Inside Toilet Bowl, After 6.5 days (40 secs each hour for 3.5 days then 30s each hour for another 3 days)

hydrogen peroxide [1% H2O2]
ATP results, Bowl Surface, rear (Inside Toilet Bowl, After 3.5 Days, 40 secs each hour, Before 17): 3 RLU
ATP results, Under Rim, right (Inside Toilet Bowl, After 3.5 Days, 40 secs each hour, Before 26): 3 RLU
ATP results, Under Rim, front [1]: 15 RLU
ATP results, Bowl Surface, left [1]: 5 RLU
ATP results, Bowl Surface, front [1]: 21 RLU
ATP results, Bowl Surface (above water), right (Inside Toilet Bowl, After 3.5 Days, 40 secs each hour, Before 173): 7 RLU
ATP results, Under Rim, left (Inside Toilet Bowl, After 3.5 Days, 40 secs each hour, Before 258): 1 RLU
ATP results, Under Rim, rear (Inside Toilet Bowl, After 3.5 Days, 40 secs each hour, Before 3083): 2 RLU
ATP results, Under Rim, front [2]: 2 RLU
ATP results, Bowl Surface, left [2]: 3 RLU
ATP results, Bowl Surface, front [2]: 5 RLU
ATP results, Handle (Shower/Tub, After 3.5 Days, 40 secs each hour, disinfectant missed handle until adjustments were made): 5381^2 RLU
ATP results, Tub Floor Center (Shower/Tub, After 3.5 Days, 40 secs each hour, Before 1789, remained high due to soap scum not being removed): 557^3 RLU
ATP results, Tub Floor, left of drain (Shower/Tub, After 3.5 Days, 40 secs each hour, Before 4511): 38 RLU
ATP results, Tub Floor, right of drain (Shower/Tub, After 3.5 Days, 40 secs each hour): 8 RLU
ATP results, Inside Drain (Shower/Tub, After 3.5 Days, 40 secs each hour, Before 6559): 6 RLU
ATP results, Top of Drain Plug and Drain Collar (Shower/Tub, After 3.5 Days, 40 secs each hour, Before 6941): 38 RLU
ATP results, Handle (Shower/Tub, After 6.5 days (40 secs each hour for 3.5 days then 30s each hour for another 3 days), after spray adjusted to hit handle): 16 RLU
ATP results, Tub Floor, right of drain (Shower/Tub, After 6.5 days (40 secs each hour for 3.5 days then 30s each hour for another 3 days)): 22 RLU
ATP results, Sink Basin, Right of Drain (Sink, After 3.5 Days, 40 secs each hour, Before 770): 13 RLU
ATP results, Sink Counter, left of faucet (Sink, After 3.5 Days, 40 secs each hour, Before 1876): 6 RLU
ATP results, Inside Drain Collar Wall (Sink, After 3.5 Days, 40 secs each hour, Before 1951): 10 RLU
ATP results, Top of Drain Plug and Drain Collar (Sink, After 3.5 Days, 40 secs each hour, Before 4351): 46 RLU
ATP results, Drain Plug, Down Inside Drain (avg) (Sink, After 3.5 Days, 40 secs each hour, Before 6863): 95 RLU
